Experiments:
Assay in all cases: radiometric filter-binding kinase assay
[1] = system: AKT1 (human), P31749 [S473D]
[2] = molecular target: AURKA (human) (UniProt O14965)
[3] = molecular target: BRSK1 (human) (UniProt Q8TDC3); conditions: compound 1.0 µM
[4] = molecular target: DYRK2 (human) (UniProt Q92630)
[5] = molecular target: EEF2K (human) (UniProt O00418)
[6] = molecular target: EPHA2 (human) (UniProt P29317)
[7] = molecular target: EPHB3 (human) (UniProt P54753)
[8] = molecular target: ERBB4 (human) (UniProt Q15303)
[9] = molecular target: GSK3B (human) (UniProt P49841)
[10] = molecular target: HIPK3 (human) (UniProt Q9H422)
[11] = molecular target: INSR (human) (UniProt P06213)
[12] = molecular target: IRAK4 (human) (UniProt Q9NWZ3)
[13] = molecular target: MAP2K2 (human) (UniProt P36507)
[14] = molecular target: MAP2K6 (human) (UniProt P52564)
[15] = molecular target: MAP3K1 (human) (UniProt Q13233)
[16] = molecular target: MAP3K11 (human) (UniProt Q16584)
[17] = molecular target: MAP3K5 (human) (UniProt Q99683)
[18] = molecular target: MAP3K7 TAB1 (human) (UniProt Q15750+O43318)
[19] = molecular target: MAP3K9 (human) (UniProt P80192)
[20] = molecular target: MAPK9 (human) (UniProt P45984)
[21] = molecular target: MAPKAPK2 (human) (UniProt P49137)
[22] = molecular target: MARK1 (human) (UniProt Q9P0L2)
[23] = molecular target: MARK2 (human) (UniProt Q7KZI7)
[24] = molecular target: MARK4 (human) (UniProt Q96L34)
[25] = molecular target: MELK (human) (UniProt Q14680)
[26] = molecular target: MST4 (human) (UniProt Q9P289); conditions: compound 10.0 µM
[27] = molecular target: NTRK1 (human) (UniProt P04629)
[28] = molecular target: NUAK1 (human) (UniProt O60285)
[29] = molecular target: PAK4 (human) (UniProt O96013)
[30] = molecular target: PAK6 (human) (UniProt Q9NQU5)
[31] = molecular target: PIM1 (human) (UniProt P11309)
[32] = molecular target: PKN2 (human) (UniProt Q16513)
[33] = molecular target: PRKCA (human) (UniProt P17252)
[34] = molecular target: PRKCZ (human) (UniProt Q05513)
[35] = molecular target: STK11 CAB39 STRADA (human) (UniProt Q9Y376+Q7RTN6+Q15831)

HIPK3 (human), sequence (Q9H422 whole entry, looked up): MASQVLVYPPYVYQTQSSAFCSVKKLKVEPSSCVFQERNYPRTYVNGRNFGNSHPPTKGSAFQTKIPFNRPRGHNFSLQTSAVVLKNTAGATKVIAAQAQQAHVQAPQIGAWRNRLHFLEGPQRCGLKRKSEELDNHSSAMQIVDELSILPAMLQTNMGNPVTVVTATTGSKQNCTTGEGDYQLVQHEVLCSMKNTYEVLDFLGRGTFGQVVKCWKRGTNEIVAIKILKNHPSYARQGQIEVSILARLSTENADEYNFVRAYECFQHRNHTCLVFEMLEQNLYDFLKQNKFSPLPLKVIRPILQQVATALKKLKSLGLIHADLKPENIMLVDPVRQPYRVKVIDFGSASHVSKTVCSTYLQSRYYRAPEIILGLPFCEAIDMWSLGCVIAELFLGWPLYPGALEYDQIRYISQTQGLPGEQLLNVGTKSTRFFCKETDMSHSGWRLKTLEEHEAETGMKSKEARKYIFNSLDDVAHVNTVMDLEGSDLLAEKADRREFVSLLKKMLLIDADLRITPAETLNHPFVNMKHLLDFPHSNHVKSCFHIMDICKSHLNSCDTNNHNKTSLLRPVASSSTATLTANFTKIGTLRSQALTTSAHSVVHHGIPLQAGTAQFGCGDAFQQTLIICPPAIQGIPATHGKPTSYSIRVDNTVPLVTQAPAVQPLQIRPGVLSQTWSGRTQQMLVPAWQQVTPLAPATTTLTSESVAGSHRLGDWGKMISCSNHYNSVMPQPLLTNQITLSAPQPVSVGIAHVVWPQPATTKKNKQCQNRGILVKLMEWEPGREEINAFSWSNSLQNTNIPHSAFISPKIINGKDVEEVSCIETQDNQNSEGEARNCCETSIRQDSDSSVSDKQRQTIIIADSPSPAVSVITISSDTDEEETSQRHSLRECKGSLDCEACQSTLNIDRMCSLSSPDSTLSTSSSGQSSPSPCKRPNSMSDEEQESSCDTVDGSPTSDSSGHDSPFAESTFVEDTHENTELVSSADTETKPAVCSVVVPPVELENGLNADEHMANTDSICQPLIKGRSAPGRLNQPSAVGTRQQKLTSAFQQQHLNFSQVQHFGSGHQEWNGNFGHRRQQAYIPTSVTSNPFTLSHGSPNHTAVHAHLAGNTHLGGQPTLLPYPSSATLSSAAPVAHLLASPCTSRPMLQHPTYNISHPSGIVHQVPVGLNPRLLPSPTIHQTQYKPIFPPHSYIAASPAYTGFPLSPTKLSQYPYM
MAPKAPK2 (human), sequence (P49137 whole entry, looked up): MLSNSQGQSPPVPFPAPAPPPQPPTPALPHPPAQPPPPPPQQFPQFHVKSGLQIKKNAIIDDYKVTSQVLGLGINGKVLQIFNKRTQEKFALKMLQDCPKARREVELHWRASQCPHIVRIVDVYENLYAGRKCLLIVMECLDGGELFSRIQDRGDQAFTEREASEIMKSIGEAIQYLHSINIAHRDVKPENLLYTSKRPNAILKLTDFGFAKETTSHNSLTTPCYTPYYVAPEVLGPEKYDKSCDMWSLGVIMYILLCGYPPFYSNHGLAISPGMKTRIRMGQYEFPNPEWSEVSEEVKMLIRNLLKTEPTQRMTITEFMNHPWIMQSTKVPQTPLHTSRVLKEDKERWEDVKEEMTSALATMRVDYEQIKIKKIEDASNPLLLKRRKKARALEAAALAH
AURKA (human), sequence (O14965 whole entry, looked up): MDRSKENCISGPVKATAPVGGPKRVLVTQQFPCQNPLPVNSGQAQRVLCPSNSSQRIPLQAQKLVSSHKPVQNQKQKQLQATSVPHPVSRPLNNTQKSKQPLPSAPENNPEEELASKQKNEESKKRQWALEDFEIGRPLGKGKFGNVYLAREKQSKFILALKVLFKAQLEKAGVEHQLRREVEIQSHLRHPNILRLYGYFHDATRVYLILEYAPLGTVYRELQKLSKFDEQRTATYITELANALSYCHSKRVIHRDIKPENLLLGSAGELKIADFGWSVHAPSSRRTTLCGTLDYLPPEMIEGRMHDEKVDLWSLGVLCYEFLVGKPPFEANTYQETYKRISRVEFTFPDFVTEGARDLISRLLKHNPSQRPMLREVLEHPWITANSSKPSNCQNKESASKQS
EPHA2 (human), sequence (P29317 whole entry, looked up): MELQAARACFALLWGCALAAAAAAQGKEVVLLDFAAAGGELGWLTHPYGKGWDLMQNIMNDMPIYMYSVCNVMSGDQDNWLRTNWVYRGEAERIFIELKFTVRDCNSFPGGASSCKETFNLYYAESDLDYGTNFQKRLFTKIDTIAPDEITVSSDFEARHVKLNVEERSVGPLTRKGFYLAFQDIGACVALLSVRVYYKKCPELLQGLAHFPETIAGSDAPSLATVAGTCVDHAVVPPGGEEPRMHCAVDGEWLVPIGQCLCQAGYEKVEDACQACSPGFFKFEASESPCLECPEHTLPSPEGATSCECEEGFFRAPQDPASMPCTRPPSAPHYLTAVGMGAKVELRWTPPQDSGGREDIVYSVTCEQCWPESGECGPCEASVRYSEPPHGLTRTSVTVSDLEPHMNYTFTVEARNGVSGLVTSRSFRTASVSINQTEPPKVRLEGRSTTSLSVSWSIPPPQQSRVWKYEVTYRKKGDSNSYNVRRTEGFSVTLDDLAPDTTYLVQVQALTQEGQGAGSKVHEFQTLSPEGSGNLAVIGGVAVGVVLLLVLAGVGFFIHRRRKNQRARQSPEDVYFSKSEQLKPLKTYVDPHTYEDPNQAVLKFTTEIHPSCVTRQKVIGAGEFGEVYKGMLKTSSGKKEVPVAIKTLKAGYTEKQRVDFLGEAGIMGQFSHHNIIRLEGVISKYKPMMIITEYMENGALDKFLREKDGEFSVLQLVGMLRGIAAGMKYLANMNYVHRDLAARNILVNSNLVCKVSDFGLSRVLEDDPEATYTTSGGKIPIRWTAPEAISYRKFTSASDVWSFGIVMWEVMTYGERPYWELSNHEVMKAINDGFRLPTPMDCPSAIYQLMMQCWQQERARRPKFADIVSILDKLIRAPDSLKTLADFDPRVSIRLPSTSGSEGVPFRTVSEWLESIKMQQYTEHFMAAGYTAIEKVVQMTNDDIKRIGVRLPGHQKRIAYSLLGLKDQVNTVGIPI
MAP3K9 (human), sequence (P80192 whole entry, looked up): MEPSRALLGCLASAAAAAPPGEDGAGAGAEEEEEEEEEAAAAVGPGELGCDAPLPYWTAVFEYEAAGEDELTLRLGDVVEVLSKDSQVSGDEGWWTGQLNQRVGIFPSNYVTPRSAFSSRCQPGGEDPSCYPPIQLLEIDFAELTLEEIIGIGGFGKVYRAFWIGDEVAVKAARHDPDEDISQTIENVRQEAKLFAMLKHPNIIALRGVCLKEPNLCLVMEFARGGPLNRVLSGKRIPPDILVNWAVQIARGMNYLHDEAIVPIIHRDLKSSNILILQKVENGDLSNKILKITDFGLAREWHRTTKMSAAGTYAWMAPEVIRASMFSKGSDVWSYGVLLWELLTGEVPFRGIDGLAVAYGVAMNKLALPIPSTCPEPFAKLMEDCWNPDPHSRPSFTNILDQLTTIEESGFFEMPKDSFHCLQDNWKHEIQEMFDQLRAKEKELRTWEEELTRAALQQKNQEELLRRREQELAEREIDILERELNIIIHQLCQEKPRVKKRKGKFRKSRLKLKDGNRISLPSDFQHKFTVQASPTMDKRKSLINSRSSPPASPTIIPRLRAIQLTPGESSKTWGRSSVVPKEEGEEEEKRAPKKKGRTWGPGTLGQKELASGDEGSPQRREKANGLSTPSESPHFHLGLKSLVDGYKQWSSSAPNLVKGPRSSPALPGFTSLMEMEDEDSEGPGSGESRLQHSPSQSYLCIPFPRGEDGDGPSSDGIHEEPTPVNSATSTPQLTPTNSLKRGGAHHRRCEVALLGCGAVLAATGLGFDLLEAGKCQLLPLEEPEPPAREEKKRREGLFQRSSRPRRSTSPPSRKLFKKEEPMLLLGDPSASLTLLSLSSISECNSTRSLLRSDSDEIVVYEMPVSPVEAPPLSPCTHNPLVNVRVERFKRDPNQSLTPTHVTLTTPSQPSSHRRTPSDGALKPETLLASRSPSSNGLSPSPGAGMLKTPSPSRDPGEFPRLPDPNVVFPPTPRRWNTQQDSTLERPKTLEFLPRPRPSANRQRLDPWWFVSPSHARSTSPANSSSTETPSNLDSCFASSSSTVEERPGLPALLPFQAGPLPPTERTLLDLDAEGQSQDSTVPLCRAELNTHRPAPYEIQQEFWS
EEF2K (human), sequence (O00418 whole entry, looked up): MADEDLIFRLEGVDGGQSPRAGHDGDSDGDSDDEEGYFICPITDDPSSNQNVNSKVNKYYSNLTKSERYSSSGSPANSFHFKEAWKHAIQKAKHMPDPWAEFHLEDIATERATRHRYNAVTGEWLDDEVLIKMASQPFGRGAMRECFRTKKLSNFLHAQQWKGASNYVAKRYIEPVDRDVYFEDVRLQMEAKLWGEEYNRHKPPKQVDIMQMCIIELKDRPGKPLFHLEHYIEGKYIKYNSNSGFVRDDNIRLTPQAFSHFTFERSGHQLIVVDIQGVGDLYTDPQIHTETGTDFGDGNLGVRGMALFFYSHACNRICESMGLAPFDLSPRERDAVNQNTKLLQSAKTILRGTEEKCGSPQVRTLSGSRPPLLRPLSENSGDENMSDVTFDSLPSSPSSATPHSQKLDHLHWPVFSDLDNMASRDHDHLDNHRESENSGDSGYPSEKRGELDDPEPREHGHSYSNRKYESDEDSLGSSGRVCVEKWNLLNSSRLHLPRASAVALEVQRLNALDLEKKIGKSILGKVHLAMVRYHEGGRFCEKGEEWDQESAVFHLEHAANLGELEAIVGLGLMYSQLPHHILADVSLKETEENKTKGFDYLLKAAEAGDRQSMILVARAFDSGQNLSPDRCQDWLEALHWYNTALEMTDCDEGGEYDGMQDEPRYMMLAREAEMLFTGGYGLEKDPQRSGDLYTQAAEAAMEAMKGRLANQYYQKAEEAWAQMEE

With `COc1cc2ncn(-c3cc(OCc4ccccc4S(C)(=O)=O)c(C#N)s3)c2cc1OC` the residual activity ([1]; compound 1.0 µM) was 98%, the residual activity ([1]; compound 10.0 µM) was 85% and the residual activity ([2]; compound 1.0 µM) was 29%. It also gave a residual activity ([2]; compound 10.0 µM) of 6%, a residual activity [3] of 40% and a residual activity ([4]; compound 1.0 µM) of 84%. The residual activity ([4]; compound 10.0 µM) was 72%, the residual activity ([5]; compound 1.0 µM) was 105% and the residual activity ([5]; compound 10.0 µM) was 98%. It also gave a residual activity ([6]; compound 1.0 µM) of 66%, a residual activity ([6]; compound 10.0 µM) of 53% and a residual activity ([7]; compound 1.0 µM) of 40%. For the same compound, the residual activity ([7]; compound 10.0 µM) was 27%, the residual activity ([8]; compound 1.0 µM) was 78% and the residual activity ([8]; compound 10.0 µM) was 84%. The residual activity ([9]; compound 1.0 µM) was 90%, the residual activity ([9]; compound 10.0 µM) was 68% and the residual activity ([10]; compound 1.0 µM) was 102%. For the same compound, the residual activity ([10]; compound 10.0 µM) was 61%, the residual activity ([11]; compound 1.0 µM) was 104% and the residual activity ([11]; compound 10.0 µM) was 105%. It also gave a residual activity ([12]; compound 1.0 µM) of 13%, a residual activity ([12]; compound 10.0 µM) of 6% and a residual activity ([13]; compound 1.0 µM) of 75%. The residual activity ([13]; compound 10.0 µM) was 57%, the residual activity ([14]; compound 1.0 µM) was 91% and the residual activity ([14]; compound 10.0 µM) was 84%. The residual activity ([15]; compound 1.0 µM) was 77%, the residual activity ([15]; compound 10.0 µM) was 54% and the residual activity ([16]; compound 1.0 µM) was 5%. It also gave a residual activity ([16]; compound 10.0 µM) of 3%, a residual activity ([17]; compound 1.0 µM) of 83% and a residual activity ([17]; compound 10.0 µM) of 69%. For the same compound, the residual activity ([18]; compound 1.0 µM) was 100%, the residual activity ([18]; compound 10.0 µM) was 70% and the residual activity ([19]; compound 1.0 µM) was 28%. The residual activity ([19]; compound 10.0 µM) was 8%, the residual activity ([20]; compound 1.0 µM) was 95% and the residual activity ([20]; compound 10.0 µM) was 90%. The residual activity ([21]; compound 1.0 µM) was 99%, the residual activity ([21]; compound 10.0 µM) was 85% and the residual activity ([22]; compound 1.0 µM) was 33%. The residual activity ([22]; compound 10.0 µM) was 31%, the residual activity ([23]; compound 1.0 µM) was 39% and the residual activity ([23]; compound 10.0 µM) was 35%. The residual activity ([24]; compound 1.0 µM) was 57%, the residual activity ([24]; compound 10.0 µM) was 42% and the residual activity ([25]; compound 1.0 µM) was 84%. It also gave a residual activity ([25]; compound 10.0 µM) of 59%, a residual activity [26] of 47% and a residual activity ([27]; compound 1.0 µM) of 30%. The residual activity ([27]; compound 10.0 µM) was 28%, the residual activity ([28]; compound 1.0 µM) was 35% and the residual activity ([28]; compound 10.0 µM) was 35%. The residual activity ([29]; compound 1.0 µM) was 53%, the residual activity ([29]; compound 10.0 µM) was 41% and the residual activity ([30]; compound 1.0 µM) was 95%. It also gave a residual activity ([30]; compound 10.0 µM) of 67%, a residual activity ([31]; compound 1.0 µM) of 94% and a residual activity ([31]; compound 10.0 µM) of 71%. The residual activity ([32]; compound 1.0 µM) was 63%, the residual activity ([32]; compound 10.0 µM) was 64% and the residual activity ([33]; compound 1.0 µM) was 96%. The residual activity ([33]; compound 10.0 µM) was 88%, the residual activity ([34]; compound 1.0 µM) was 97% and the residual activity ([34]; compound 10.0 µM) was 95%. It also gave a residual activity ([35]; compound 1.0 µM) of 80% and a residual activity ([35]; compound 10.0 µM) of 62%.

— the kinase profiling compilation of Christmann-Franck et al. (2016)
